The values that follow come from US20260048075A1, “Inhibition of TCF4/ITF2 in the Treatment of Cancer” (VIB VZW, priority 2022, published 2026).

Like-named read-outs stand apart in the source and are kept apart here.

Experiment [1] deals with TCF4. Description: RT-qPCR of TCF4 expression after ARV-771. The format is cell-based, human. Conditions: MM057 cells; collected 48 hours after plating. On the procedure:
MM057 cells were plated and treated with the specified dose of ARV-771, as described above 48 hours after plating, cells were collected, resuspended in RA1 lysis buffer using the RNA NucleoSpin extraction kit (Macherey&Nagel) and processed according to manufacturer's instructions. RNA was quantified using a ThermoScientific NanoDrop 1000 and 500 to 2000 ng was reverse transcribed with a High-Capacity cDNA Reverse Transcription Kit (Life Technologies). qPCRs were run using the SensiFAST probe No-ROX kit (Bioline, Cat #BIO-86005) on a Roche Life Science LightCycler 384. Data processing with Biogazelle Qbase+3.1 software relied on normalization with a minimum of two reference genes.
On the technique in general: In qPCR the cycle at which signal appears reflects the starting amount.

Experiment [2] has as its system TCF4 locus. Description: OmniATAC-seq chromatin accessibility. The format is cell-based, human. Conditions: MM057 cells; ARV-771 100 nM. Here is the method:
Approximately […] MM057 cells were plated in a 6-well plate and treated with ARV-771 100 nM after 24 hours. Forty eight hours after plating, cells were collected. Nuclei of 50,000 cells were isolated and an Omni-assay for transposase-accessible chromatin using sequencing (OmniATAC-seq) was performed as described previously (Corces et al. 2017, Nat Methods 14:959-962). After final amplification, samples were cleaned up with MinElute (QIAGEN) and libraries were prepared using the KAPA Library Quantification Kit (supplier). Samples were sequenced on an IlluminaNextSeq 500 High Output chip. Briefly, reads were mapped to human genome (GRCh37) using STAR (2.7.1a-foss-2018a). Resulting BAMfiles were cleaned for duplicates using Picard (2.21.8-Java-1.8.0) and indexed. Mitochondrial reads were removed using SAMtools (1.9-20190828-foss-2018a) and BigWig files were created (deepTools/3.3.1-foss-2018a-Python-3.7.4). ATAC-seq peaks were identified and visualized using MACS2 peak calling (2.1.2.1-foss-2018a-Python-2.7.16) with […] BAMPE parameters. Finally, BED files were created from broadPeak files using BEDTools (2.28.0-foss-2018a).

The subject of experiment [3] is TCF4. The conditions noted are these: B cell lymphoma and BPDCN; Jain et al. 2019, Ceribelli et al. 2016; cited from earlier work.
Experiment [4] has as its system melanoma MES cells. Description: Bulk RNA sequencing after ARV-771 exposure. The format is cell-based, human. The conditions noted are these: 50 nM ARV-771; for antigen presentation program expression: melanoma MES cells. Here is the method: Approximately 2*10^5 cells were plated in a 6-well plate. For knockdown experiments, these were transfected with the described siRNA pool 24 and 72 hours after plating and collected 24 hours after the second transfection. For inducible TCF4 experiments, cells were treated with 2 ng/ml doxycycline (Sigma-Aldrich, Cat #D9891) every 48 hours and collected 96 hours after plating. For ARV-771 experiments, cells were treated with 50 nM ARV-771 (Bioconnect, Cat #HY-100972) 24 hours after plating and collected 96 hours after plating. RNA was extracted using the RNA NucleoSpin extraction kit (Macherey&Nagel) according to the manufacturer's instructions.
The RNA integrity was monitored using Bioanalyzer analysis. 5 ng of RNA per sample was reverse-transcribed and amplified using a modified version of the SMARTseq2 protocol, previously described in Rambow et al. 2018 (Cell 174:843-855.e19). Prior to generating sequencing libraries using the NexteraXT kit (Illumina, Cat #FC-131-10), cDNA profiles were monitored using the Bioanalyzer. Sequencing was performed on a Illumina Nextseq500 platform. Differential gene expression analyses were executed using the DeSeq2 pipeline.

In experiment [5] the test system is MM029 cells. Description: Proliferation assay (IncuCyte cell confluency). The format is cell-based, human. Conditions: ARV-771 300 nM with dabrafenib 50 nM, trametinib 10 nM, FIG. 9. Here is the method: Roughly 400 MM029 cells per well were plated in a 96-well plate and treated with ARV-771 300 nM and/or Dabrafenib 50 nM+Trametinib 10 nM after 24 hours. Cells were imaged using the IncuCyte ZOOM System (Essen Bioscience) and automated cell confluency measurements were made using images taken at 2 hour intervals, for the duration of the experiments. Five technical replicates were averaged and statistical significance was assessed (paired, two-tailed Student's t-test).

As to `Cc1ncsc1-c1ccc([C@H](C)NC(=O)[C@@H]2C[C@@H](O)CN2C(=O)[C@@H](NC(=O)COCCCOCCNC(=O)C[C@@H]2N=C(c3ccc(Cl)cc3)c3c(sc(C)c3C)-n3c(C)nnc32)C(C)(C)C)cc1` [ARV-771], in experiment [1], the TCF4 expression entry is on record as “dose-dependent decrease in TCF4 expression”. Moreover, the “chromatin accessibility upstream of the TCF4 locus” value in experiment [2] is listed as “decreased chromatin accessibility upstream of the TCF4 locus”. In experiment [3], the TCF4 expression entry was “decrease its expression”. Moreover, in experiment [4], the “expression of genes from the MES signature” value is recorded as “strongly downregulated”, the “expression of genes from the MITF-dependent MEL signature” value was “upregulated”, the “transcriptional changes compared with TCF4 silencing” value is on record as “recapitulated most of the transcriptional changes observed upon TCF4 silencing” and the “antigen presentation program expression” value is listed as “upregulated”. Also, the “antigen presentation program expression” value in experiment [4] (listed as ARV-711) was “unleashes the expression of antigen presentation machinery and HLA-genes”. Also, the “overall transcriptional reprogramming effect upon BET-inhibition” value in experiment [4] (mesenchymal-like vs melanocytic cell lines) is given as “far more drastic in mesenchymal-like than in melanocytic cell lines”. Besides, the “sensitivity to BRAF- and MEK-inhibition (cell growth)” value in experiment [5] is “increased sensitivity to BRAF- and MEK-inhibition”.
